Results from ChEMBL document CHEMBL3301361, “Experimental in vitro DMPK and physicochemical data on a set of publicly disclosed compounds”.
Non-standard residues stand in square brackets, D forms with d. Residues, ends and D or L forms follow the SMILES beside them. Dip = N[C@H](C(=O)O)C(c1ccccc1)c1ccccc1; Chg = N[C@H](C(=O)O)C1CCCCC1; NMeA = CN[C@@H](C)C(=O)O

Legend:
in vitro = conditions: human, plasma
physchem = conditions: octan-1-ol/water

NC(=O)c1cnc(N[C@H]2CCCNC2)c2cc(Br)sc12
fraction unbound at 5 h (in vitro; PPB): 0.179
logD (physchem; pH 7.4, LogD7.4): 1.08

O=c1cc(-c2ccccc2)ccn1-c1ccc2c(cnn2CCN2CCCC2)c1
fraction unbound at 5 h (in vitro; PPB): 0.17
logD (physchem; pH 7.4, LogD7.4): 1.6

Cc1[nH]c(/C=C2\C(=O)Nc3ccc(F)cc32)c(C)c1C(=O)NCCN(C)C
fraction unbound at 5 h (in vitro; PPB): 0.173
logD (physchem; pH 7.4, LogD7.4): 1.75

COc1cc(OC)c2nc(C)c3c(c2c1)N(c1ccc(O)cc1)CC3
fraction unbound at 5 h (in vitro; PPB): 0.112
logD (physchem; pH 7.4, LogD7.4): 1.5

O=c1cc(O)oc2c1c(=O)n(-c1ccccc1)c1ccccc21
fraction unbound at 5 h (in vitro; PPB): 0.0183
logD (physchem; pH 7.4, LogD7.4): 0.96

CNC(=O)c1snnc1-c1ccccc1
fraction unbound at 5 h (in vitro; PPB): 0.563
logD (physchem; pH 7.4, LogD7.4): 1.23

Cc1cc(Nc2nc(N[C@@H](C)c3ncc(F)cn3)ncc2F)n[nH]1
fraction unbound at 5 h (in vitro; PPB): 0.471
logD (physchem; pH 7.4, LogD7.4): 1.79

Cc1cc(Nc2nc(N[C@@H](C)c3ncc(F)cn3)ncc2C)n[nH]1
fraction unbound at 5 h (in vitro; PPB): 0.28
logD (physchem; pH 7.4, LogD7.4): 1.75

CC[C@H]1CN(Cc2cc(Cl)ccc2OCC(=O)O)CCN1S(=O)(=O)c1ccccc1
fraction unbound at 5 h (in vitro; PPB): 0.0069
logD (physchem; pH 7.4, LogD7.4): 0.44

COc1ccc2ncc(=O)n(CCN3CCC(NCc4cc5c(cn4)OCCO5)CC3)c2n1
fraction unbound at 5 h (in vitro; PPB): 0.465
logD (physchem; pH 7.4, LogD7.4): 0.83

COc1ccc2c(c1)N(CCN1CCC(NCc3ccc4c(n3)NC(=O)CO4)CC1)C(=O)CC2
fraction unbound at 5 h (in vitro; PPB): 0.0418
logD (physchem; pH 7.4, LogD7.4): 0.66

COc1ccc2c(c1)N(CCN1CCC(NCc3ccc4c(n3)NC(=O)CO4)CC1)C(=O)OC2
fraction unbound at 5 h (in vitro; PPB): 0.258
logD (physchem; pH 7.4, LogD7.4): 0.5

COc1ccc2ccc(=O)n(CCN3CCC(NCc4cc5c(cn4)OCCO5)CC3)c2c1
fraction unbound at 5 h (in vitro; PPB): 0.309
logD (physchem; pH 7.4, LogD7.4): 1.31

COc1ccc2ccc(=O)n(CCN3CCC(NCc4cc5c(cn4)OCCO5)CC3)c2n1
fraction unbound at 5 h (in vitro; PPB): 0.314
logD (physchem; pH 7.4, LogD7.4): 1.16

Cc1c(Sc2ccc(Cl)cc2)c2cc(S(C)(=O)=O)ccc2n1CC(=O)O
fraction unbound at 5 h (in vitro; PPB): 0.0127
logD (physchem; pH 7.4, LogD7.4): 0.54

Cc1ccc(S(=O)(=O)Nc2c(C(=O)N[C@@H](C)C(C)(C)C)c(C)nn2C2CCN(C)CC2)cc1
fraction unbound at 5 h (in vitro; PPB): 0.454
logD (physchem; pH 7.4, LogD7.4): 0.8

CN[C@@H](C)C(=O)N[C@H](C(=O)N[C@H]1CCCN(CCc2ccccc2)C1)C1CCCCC1
fraction unbound at 5 h (in vitro; PPB): 0.329
logD (physchem; pH 7.4, LogD7.4): 1.65

CN[C@@H](C)C(=O)N[C@H](C(=O)N[C@H]1CCN(Cc2ccccc2)C1)C1CCCCC1
fraction unbound at 5 h (in vitro; PPB): 0.511
logD (physchem; pH 7.4, LogD7.4): 1.49

CN[C@@H](C)C(=O)N[C@H](C(=O)N[C@H]1CCN(CCc2ccccc2)C1)C1CCCCC1
fraction unbound at 5 h (in vitro; PPB): 0.443
logD (physchem; pH 7.4, LogD7.4): 1.65

CN[C@@H](C)C(=O)N[C@H](C(=O)N[C@H]1CCN(C(=O)c2ccccc2)C1)C1CCCCC1
fraction unbound at 5 h (in vitro; PPB): 0.661
logD (physchem; pH 7.4, LogD7.4): 0.82

CN[C@@H](C)C(=O)N[C@H](C(=O)N[C@H]1CCN(C(=O)Cc2ccccc2)C1)C1CCCCC1
fraction unbound at 5 h (in vitro; PPB): 0.671
logD (physchem; pH 7.4, LogD7.4): 0.81

CN[C@@H](C)C(=O)N[C@H](C(=O)N[C@H]1CCCN(C(=O)c2ccccc2)C1)C1CCCCC1
fraction unbound at 5 h (in vitro; PPB): 0.552
logD (physchem; pH 7.4, LogD7.4): 0.87

CN[C@@H](C)C(=O)N[C@H](C(=O)N[C@H]1CCCN(C(=O)Cc2ccccc2)C1)C1CCCCC1
fraction unbound at 5 h (in vitro; PPB): 0.376
logD (physchem; pH 7.4, LogD7.4): 1.32

CN[C@@H](C)C(=O)N[C@H](C(=O)N[C@H]1CCCN(CCc2ccccc2)C1)C(C)(C)C
fraction unbound at 5 h (in vitro; PPB): 0.506
logD (physchem; pH 7.4, LogD7.4): 1.46

CN[C@@H](C)C(=O)N[C@H](C(=O)N[C@H]1CCCN(CCc2ccccc2OC)C1)C(C)(C)C
fraction unbound at 5 h (in vitro; PPB): 0.258
logD (physchem; pH 7.4, LogD7.4): 1.61

CN[C@@H](C)C(=O)N[C@H](C(=O)N[C@H]1CCCN(CCc2ccc([N+](=O)[O-])cc2)C1)C(C)(C)C
fraction unbound at 5 h (in vitro; PPB): 0.262
logD (physchem; pH 7.4, LogD7.4): 1.54

COc1cc(OC)c(S(=O)(=O)N(C)c2ccccc2)cc1NC(C)=O
fraction unbound at 5 h (in vitro; PPB): 0.179
logD (physchem; pH 7.4, LogD7.4): 1.1

COc1cc(OC)c(S(=O)(=O)N(c2ccccc2)C(C)C)cc1NC(C)=O
fraction unbound at 5 h (in vitro; PPB): 0.005
logD (physchem; pH 7.4, LogD7.4): 1.6

COc1ccc([C@]2(O)CC[C@H](N3CC[C@@H](NC(=O)CNC(=O)c4cccc(C(F)(F)F)c4)C3)CC2)cn1
fraction unbound at 5 h (in vitro; PPB): 0.212
logD (physchem; pH 7.4, LogD7.4): 1.72

Cn1ncc2c(=O)[nH]c(-c3ccccc3)nc21
fraction unbound at 5 h (in vitro; PPB): 0.0676
logD (physchem; pH 7.4, LogD7.4): 1.61

COc1ccc(-c2nc3c(OCC4CCNCC4)c(Br)cnc3[nH]2)cc1
fraction unbound at 5 h (in vitro; PPB): 0.134
logD (physchem; pH 7.4, LogD7.4): 1.55

O=C(c1cccc(Cc2n[nH]c(=O)c3ccccc23)c1)N1CCOCC1
fraction unbound at 5 h (in vitro; PPB): 0.415
logD (physchem; pH 7.4, LogD7.4): 1

COc1cccc(/C=C2\SC(=O)NC2=O)c1N1CCC[C@@H](N)C1
fraction unbound at 5 h (in vitro; PPB): 0.0836
logD (physchem; pH 7.4, LogD7.4): 1.27

CC(C)Cn1c(=O)n(C)c(=O)c2c(C(=O)N3CC[C@@H](O)C3)c(Cc3c[nH]c4ncccc34)sc21
fraction unbound at 5 h (in vitro; PPB): 0.314
logD (physchem; pH 7.4, LogD7.4): 1.71

Cc1nc(Cl)c(Cl)n1Cc1sc2c(c1C(=O)N1CC[C@@H](O)C1)c(=O)n(C)c(=O)n2CC(C)C
fraction unbound at 5 h (in vitro; PPB): 0.089
logD (physchem; pH 7.4, LogD7.4): 1.61

CC(=O)Nc1ccc2ccn(-c3cc(NCCCN(C)C)n4ncc(C#N)c4n3)c2c1
fraction unbound at 5 h (in vitro; PPB): 0.101
logD (physchem; pH 7.4, LogD7.4): 1.62

COc1ccc2ncc(=O)n(CCN3CC[C@H](NCc4ccc5c(n4)NC(=O)CO5)[C@H](O)C3)c2c1
fraction unbound at 5 h (in vitro; PPB): 0.137
logD (physchem; pH 7.4, LogD7.4): 0.39

COc1ccc2ncc(=O)n(CCN3CC[C@@H](NCc4ccc5c(n4)NC(=O)CO5)[C@@H](O)C3)c2c1
fraction unbound at 5 h (in vitro; PPB): 0.0532
logD (physchem; pH 7.4, LogD7.4): 0.37

CO[C@H]1CN(CCn2c(=O)ccc3ccc(C#N)cc32)CC[C@@H]1NCc1cc2c(cn1)OCCO2
fraction unbound at 5 h (in vitro; PPB): 0.16
logD (physchem; pH 7.4, LogD7.4): 1.05

CO[C@@H]1CN(CCn2c(=O)ccc3ccc(C#N)cc32)CC[C@H]1NCc1ccc2c(n1)NC(=O)CO2
fraction unbound at 5 h (in vitro; PPB): 0.276
logD (physchem; pH 7.4, LogD7.4): 0.81

COc1ccc2ncc(=O)n(CCN3CC[C@H](NCc4cc5c(cn4)OCCO5)[C@@H](OC)C3)c2c1
fraction unbound at 5 h (in vitro; PPB): 0.166
logD (physchem; pH 7.4, LogD7.4): 1.25

COc1ccc2ncc(=O)n(CCN3CC[C@@H](NCc4ccc5c(n4)NC(=O)CO5)[C@@H](F)C3)c2c1
fraction unbound at 5 h (in vitro; PPB): 0.244
logD (physchem; pH 7.4, LogD7.4): 0.83

CC(C)(C)OC(=O)NCCCSC[C@H]1O[C@@H](n2cnc3c(N)ncnc32)[C@H](O)[C@@H]1O
fraction unbound at 5 h (in vitro; PPB): 0.236
logD (physchem; pH 7.4, LogD7.4): 1.2

CS(=O)(=O)c1ccc2c(C(=O)NC[C@@H](O)CN3CCC(Oc4ccc(C#N)c(Cl)c4)CC3)c[nH]c(=O)c2c1
fraction unbound at 5 h (in vitro; PPB): 0.319
logD (physchem; pH 7.4, LogD7.4): 1.41

Cc1cn([C@H]2CCCN(S(=O)(=O)c3ccc(O)c(Oc4ccccc4)c3)C2)c(=O)[nH]c1=O
fraction unbound at 5 h (in vitro; PPB): 0.062
logD (physchem; pH 7.4, LogD7.4): 1.49

Cc1cn([C@H]2CCCN(S(=O)(=O)c3ccc(O)c(Oc4cccc(F)c4)c3)C2)c(=O)[nH]c1=O
fraction unbound at 5 h (in vitro; PPB): 0.0457
logD (physchem; pH 7.4, LogD7.4): 1.6

O=C(NO)C1COC(c2ccc(F)c(C(F)(F)F)c2)=N1 (configuration not stated)
fraction unbound at 5 h (in vitro; PPB): 0.0836
logD (physchem; pH 7.4, LogD7.4): 1.53

COc1ccc(NC(=O)c2ccnc(N)n2)cc1
fraction unbound at 5 h (in vitro; PPB): 0.289
logD (physchem; pH 7.4, LogD7.4): 1.72

Cc1nc(CSc2nc(N[C@H](C)CO)c3sc(=O)[nH]c3n2)cs1
fraction unbound at 5 h (in vitro; PPB): 0.0086
logD (physchem; pH 7.4, LogD7.4): 1.73

CNc1nc2ccccc2n1Cc1sc2c(c1C(=O)N1CC[C@@H](O)C1)c(=O)n(C)c(=O)n2CC(C)C
fraction unbound at 5 h (in vitro; PPB): 0.319
logD (physchem; pH 7.4, LogD7.4): 1.61

NC(=O)Nc1sc(-c2ccc(CN3CCCCC3)cc2)cc1C(N)=O
fraction unbound at 5 h (in vitro; PPB): 0.334
logD (physchem; pH 7.4, LogD7.4): 1.75

c1ccc2c(c1)CCN(c1ccncc1)C2
fraction unbound at 5 h (in vitro; PPB): 0.431
logD (physchem; pH 7.4, LogD7.4): 1.4

CN1CCN(C(=O)c2cccc(Cc3n[nH]c(=O)c4ccccc34)c2)CC1
fraction unbound at 5 h (in vitro; PPB): 0.349
logD (physchem; pH 7.4, LogD7.4): 0.92

O=C(CC12CC3CC(CC(C3)C1)C2)Nc1cccc2nc(NCCNCCO)ccc12
fraction unbound at 5 h (in vitro; PPB): 0.0457
logD (physchem; pH 7.4, LogD7.4): 1.79

Cc1cc(Nc2nc(N[C@@H](C)c3ccc(F)cn3)cnc2C)[nH]n1
fraction unbound at 5 h (in vitro; PPB): 0.16
logD (physchem; pH 7.4, LogD7.4): 1.73

CN[C@@H](C)C(=O)N[C@H](C(=O)N1CCC[C@H]1C(=O)N[C@H](C(=O)OC)C(c1ccccc1)c1ccccc1)C1CCCCC1 (H-[NMeA][Chg]P[Dip]-OMe)
fraction unbound at 5 h (in vitro; PPB): 0.176
logD (physchem; pH 7.4, LogD7.4): 2.42

CC(C(=O)O)c1ccc2oc(-c3ccc(Cl)cc3)nc2c1 (configuration not stated) [BENOXAPROFEN]
fraction unbound at 5 h (in vitro; PPB): 0.0024
logD (physchem; pH 7.4, LogD7.4): 1.3

Cc1c(N)cccc1Cn1ccc(OCCc2cccs2)cc1=O [CG-400549]
fraction unbound at 5 h (in vitro; PPB): 0.0499
logD (physchem; pH 7.4, LogD7.4): 2.78

CNC1=Nc2ccc(Cl)cc2C(c2ccccc2)=[N+]([O-])C1 [CHLORDIAZEPOXIDE]
fraction unbound at 5 h (in vitro): 0.0229
logD (physchem; pH 7.4): 2.41

CN(C)CCCN1c2ccccc2CCc2ccc(Cl)cc21 [CLOMIPRAMINE]
fraction unbound at 5 h (in vitro; PPB): 0.0374
logD (physchem; pH 7.4, LogD7.4): 3.36

CC(C)N(CCC(C(N)=O)(c1ccccc1)c1ccccn1)C(C)C (configuration not stated) [DISOPYRAMIDE]
fraction unbound at 5 h (in vitro): 0.666
logD (physchem; pH 7.4): -0.54
